Laboratory results from patent publication US20220009894A1, “1,2,3,4-TETRAHYDROQUINOXALINE DERIVATIVE, PREPARATION METHOD THEREFOR AND APPLICATION THEREOF” (Abbisko Therapeutics Co., Ltd., priority 2019, published 2022).

Assays:
RORγt = target: T1, RORγt (Homo sapiens, UniProt P51449); test: RORγt cellular reporter gene detection assay; format: cell-based; conditions: 24 hrs; for EC50: HEK 293 cells co-transfected with pFN26A-RORγt-LBD and pG14.35, in presence of antagonist Ursolic acid, top concentration 50 μM; for Cellular Reporter Assay Amax: upper activation limit, HEK 293 cells, in presence of antagonist Ursolic acid;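 as to Cellular Reporter Assay Amax: Ursolic Acid added as 5 µL of 20 µM medium per well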
T1 construct: The plasmid of pFN26A-RORγt-LBD and pG14.35 (Promega, Cat. No. E1370) were co-transfected into HEK 293 cells; expressed in transfected cells; host or cells: HEK 293 cells (Cat. No. GNHu18)
T1 sequence (P51449 269-508 limits assumed): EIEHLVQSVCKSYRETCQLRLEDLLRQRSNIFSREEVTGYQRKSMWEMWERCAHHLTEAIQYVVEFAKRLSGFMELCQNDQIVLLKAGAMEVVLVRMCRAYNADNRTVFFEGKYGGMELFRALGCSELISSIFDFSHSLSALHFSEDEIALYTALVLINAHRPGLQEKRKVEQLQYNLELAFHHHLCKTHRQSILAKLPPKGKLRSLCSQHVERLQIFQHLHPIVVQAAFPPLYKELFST
Description: II. RORγt Cellular Reporter Gene Detection Assay
In this experiment, RORγt Reporter Gene Detection method was used to evaluate the activation and specificity of compounds to RORγt in cells. The plasmid of pFN26A-RORγt-LBD and pG14.35 (Promega, Cat. No. E1370) were co-transfected into HEK 293 cells (Cat. No. GNHu18). The efficacy of compounds was evaluated with the presence of an antagonist Ursolic acid (Selleck, Cat. No. S2370-100 mg). The specific experimental process was as follow: • 1. The plasmids-co-transfected cells were inoculated into a 96-well plate (Corning, Cat. No 3610) in a fresh DMEM medium (Gibco, cat. No. 1773536) containing 10% fetal bovine serum (Gibco, Cat. No. 10099-141) at 30000 cells/40 μL/well; • 2. 5 μL of medium containing 20 μM Ursolic acid was added thereto; • 3. The dose effect was evaluated by a 4-fold dilution of the test compound starting from 50 μM; • 4. 5 μL of medium containing a compound concentration of 10-fold of its final test concentration was added; • 5. After the cells were incubated at 37° C. and 5% CO2 for 24 hrs, 50 μL of detection reagent was added to detect firefly fluorescence using PerkinElmerEnVision, and 50 μL of the second detection reagent was added to detect sea kidney fluorescence; • 6. A four-parameter curve simulated in GraphPad Prism was used to determine the concentration for 50% activation (EC50) and the upper activation limit (Amax) for each compound.

RORγt-LBD = target: T2, RORγt-LBD (Homo sapiens, UniProt P51449); test: Time-resolved fluorescence resonance energy-transfer assay (TR-FRET), co-activator peptide recruitment; format: biochemical; set-up: TR-FRET Biochemical Amax: unit not given here; conditions: for EC50: His-RORγt-LBD 30 nM, SRC peptide 500 nM, agonistic activity, averages of one or more measurements, read-out: TR-FRET Biochemical EC50/; for TR-FRET Biochemical Amax: upper activation limit, His-RORγt-LBD, SRC peptide
T2 sequence (P51449 269-508 limits assumed): T1 sequence (P51449 269-508 limits assumed)
Text: I. Time-Resolved Fluorescence Resonance Energy-Transfer Assay (TR-FRET)
This experiment was a screening experiment for RORγt nuclear receptor agonists based on TR-FRET technology. When His-labeled RORγt-LBD receptor binds to receptor agonists, it may increase the recruitment of biotin-labeled co-activator peptides. Europium-His-RORγt-LBD is indirectly labeled by donor (Eu) by binding to Eu-anti-His antibody. Once Eu is activated by an energy source (such as flashlight or laser), the energy will be transferred to the co-activator indirectly labeled by allophycocyanin by binding of allophycocyanin-streptavidin and biotin-labeled co-activator. • 1. 10× buffer (500 mM Tris-HCl, 500 mM KCl, and 10 mM Na-EDTA) was prepared, pH value was adjusted to 7.0. The buffer was stored at 4° C. for later use and was restored to normal temperature before experiment; • 2. The 10× buffer was diluted to 1× with pure water. Final concentration of 0.01% Triton X-100 and 1 mM DTT (dithiothreitol) were added to prepare the assay buffer; • 3. DMSO was used to prepare 1000× compound stock solution. The compound solution was serial-diluted in 5-fold for 7 concentrations from the top concentration of 1000 nM/10000 nM. Then the 10× compound solution was prepared with assay buffer. An amount of 2 μL was aliquoted into the 20 μL system; • 4. 5×RORγt-LBD protein solution was unfreezed, and a solution of 5× concentration was prepared with assay buffer to obtain a final concentration of 30 nM. The whole operation was carried out on ice; • 5. 5×SRC peptide was unfreezed, and a solution of 5× concentration was prepared with assay buffer to obtain a final concentration of 500 nM. The whole operation was carried out on ice; • 6. 4 μL/well of RORγt-LBD receptor was added into the testing wells of 384-well plate, and the same amount of assay buffer was added to the control wells of non-RORγt-LBD group; • 7. 2 μL of compound was added into each well of 384-well plate; • 8. 4 μL of SRC peptide was added into each well of 384-well plate; • 9. 2× Eu-anti-6× His/APC-Streptavidin was diluted with Lance detection buffer to a final concentration of 0.25 nM and 5 nM, respectively, and then 10 μL of 2× Eu-anti-6× His/APC-Streptavidin was added into each well of 384-well plate; • 10. The mixed solution was incubated at 4° C. overnight; • 11. On the morning of the next day, the 384-well plate was incubated at room temperature for 1 hr. Then the corresponding signal values were read with PerkinElmer EnVision at a wavelength of 665/615 […]. The agonistic activity of the corresponding compound was calculated with Graphpad Prism 7.0 software.

Compound: O=S(=O)(c1cccc(C(F)(F)F)c1)N1C[C@@H]2CC(O[C@@H]3O[C@H](CO)[C@@H](O)[C@H](O)[C@H]3O)CCN2c2ccc(-c3cc(F)cc(OC(F)F)c3)cc21 (stereo partly drawn) [Example 112, (2R,3R,4S,5S,6R)-2-(((6aS)-3-(3-(difluoromethoxy)-5-fluorophenyl)-5-((3-(trifluoromethyl)phenyl)sulfonyl)-6,6a,7,8,9,10-hexahydro-5H-pyrido[1,2-a]quinoxalin-8-yl)oxy)-6-(hydroxymethyl)tetrahydro-2H-pyran-3,4,5-triol]
- EC50 (RORγt): 1940 nM
- Cellular Reporter Assay Amax (RORγt): 5.6
- EC50 (RORγt-LBD): 273 nM
- TR-FRET Biochemical Amax (RORγt-LBD): 0.33

Compound: C/C(=C\c1ccc2c(c1)N(S(=O)(=O)c1cccc(C(F)(F)F)c1)C[C@H](CCC(=O)O)N2C)c1c(F)cccc1Cl [Example 3, (S,E)-3-(6-(2-(2-chloro-6-fluorophenyl)prop-1-en-1-yl)-1-methyl-4-((3-(trifluoromethyl)phenyl)sulfonyl)-1,2,3,4-tetrahydroquinoxalin-2-yl)propanoic acid]
- EC50 (RORγt): 1740 nM
- Cellular Reporter Assay Amax (RORγt): 4.4
- EC50 (RORγt-LBD): 29.1 nM
- TR-FRET Biochemical Amax (RORγt-LBD): 1.20

Compound: C/C(=C\c1ccc2c(c1)N(S(=O)(=O)c1cccc(C(F)(F)F)c1)C[C@@H]1CN(CC(=O)O)CCN21)c1c(F)cccc1Cl [Example 21, (S,E)-2-(8-(2-(2-chloro-6-fluoro-phenyl)prop-1-en-1-yl)-6-((3-(trifluoromethyl)phenyl)sulfonyl)-1,2,4,4a,5,6-hexa-hydro-3H-pyrazino[1,2-a]quinoxalin-3-yl)acetic acid]
- EC50 (RORγt): 273 nM
- Cellular Reporter Assay Amax (RORγt): 5.5
- EC50 (RORγt-LBD): 17.6 nM
- TR-FRET Biochemical Amax (RORγt-LBD): 0.94

Compound: C[C@]1(OCCC(=O)O)CCN2c3ccc(-c4cc(F)cc(OC(F)F)c4)cc3N(S(=O)(=O)c3cccc(C(F)(F)F)c3)C[C@@H]2C1 [Example 114, 3-(((6aS,8S)-3-(3-(difluoro-methoxy)-5-fluorophenyl)-8-methyl-5-((3-(trifluorometh-yl)phenyl)sulfonyl)-6,6a,7,8,9,10-hexahydro-5H-py-rido[1,2-a]quinoxalin-8-yl)oxy)propanoic acid]
- EC50 (RORγt): 969 nM
- Cellular Reporter Assay Amax (RORγt): 5.3
- EC50 (RORγt-LBD): 113 nM
- TR-FRET Biochemical Amax (RORγt-LBD): 0.51

Compound: N#CCC(=O)N1CCN2c3ccc(-c4cc(F)cc(OC(F)F)c4)cc3N(S(=O)(=O)c3cccc(C(F)(F)F)c3)C[C@@H]2C1 [Example 28, (S)-3-(8-(3-(difluoromethoxy)-5-fluorophenyl)-6-((3-(trifluoromethyl)phenyl)sulfonyl)-1,2,4,4a,5,6-hexahydro-3H-pyrazino[1,2-a]quinoxalin-3-yl)-3-oxopropanenitrile]
- EC50 (RORγt): 354 nM
- Cellular Reporter Assay Amax (RORγt): 2.6
- EC50 (RORγt-LBD): 14.7 nM
- TR-FRET Biochemical Amax (RORγt-LBD): 0.86

Compound: CS(=O)(=O)N1CCN2c3ccc(-c4cc(F)cc(OC(F)F)c4)cc3N(S(=O)(=O)c3cc(C(F)(F)F)cnc3OCCO)C[C@@H]2C1 [Example 89, (S)-2-((3-((8-(3-(difluoromethoxy)-5-fluorophenyl)-3-(methylsulfonyl)-1,2,3,4,4a,5-hexahydro-6H-pyrazino[1,2-a]quinoxalin-6-yl)sulfonyl)-5-(trifluoromethyl)pyridin-2-yl)oxy)ethan-1-ol]
- EC50 (RORγt): 1090 nM
- Cellular Reporter Assay Amax (RORγt): 2.7
- EC50 (RORγt-LBD): 0.53 nM
- TR-FRET Biochemical Amax (RORγt-LBD): 0.40

Compound: CS(=O)(=O)COC1CCN2c3ccc(-c4cc(F)cc(OC(F)F)c4)cc3N(S(=O)(=O)c3cccc(C(F)(F)F)c3)C[C@@H]2C1 (stereo partly drawn) [Example 110, (6aS)-3-(3-(difluoromethoxy)-5-fluorophenyl)-8-((methylsulfonyl)methoxy)-5-((3-(trifluoromethyl)phenyl)sulfonyl)-6,6a,7,8,9,10-hexahydro-5H-pyrido[1,2-a]quinoxaline]
- EC50 (RORγt): 214 nM
- Cellular Reporter Assay Amax (RORγt): 2.8
- EC50 (RORγt-LBD): 12.1 nM
- TR-FRET Biochemical Amax (RORγt-LBD): 0.76

Compound: C/C(=C\c1ccc2c(c1)N(S(=O)(=O)c1cccc(C(F)(F)F)c1)C[C@@H]1CN(C(CO)(CO)C(N)=O)CCN21)c1c(F)cccc1Cl [Example 75, (S,E)-2-(8-(2-(2-chloro-6-fluorophenyl)prop-1-en-1-yl)-6-((3-(trifluoromethyl)phenyl)sulfonyl)-1,2,4,4a,5,6-hexahydro-3H-pyrazino[1,2-a]quinoxalin-3-yl)-3-hydroxy-2-(hydroxymethyl)propanamide]
- EC50 (RORγt): 1190 nM
- Cellular Reporter Assay Amax (RORγt): 3.7
- EC50 (RORγt-LBD): 55.7 nM
- TR-FRET Biochemical Amax (RORγt-LBD): 0.87

Compound: CCOC(=O)C(=O)N1CCN2c3ccc(/C=C(\C)c4c(F)cccc4Cl)cc3N(S(=O)(=O)c3cccc(C(F)(F)F)c3)C[C@@H]2C1 [Example 57, ethyl (S,E)-2-(8-(2-(2-chloro-6-fluorophenyl)prop-1-en-1-yl)-6-((3-(trifluoromethyl)phenyl)sulfonyl)-1,2,4,4a,5,6-hexahydro-3H-pyrazino[1,2-a]quinoxalin-3-yl)-2-oxoacetate]
- EC50 (RORγt): 304 nM
- Cellular Reporter Assay Amax (RORγt): 3.2
- EC50 (RORγt-LBD): 6.54 nM
- TR-FRET Biochemical Amax (RORγt-LBD): 0.89

Compound: O=S(=O)(c1cccc(C(F)(F)F)c1)N1C[C@@H]2CNCCN2c2ccc(/C=C/c3c(Cl)cccc3C(F)(F)F)cc21 [Example 11, (S,E)-8-(2-chloro-6-(tri-fluoromethyl)styryl)-6-((3-(trifluoromethyl)phenyl)sulfonyl)-2,3,4,4a,5,6-hexa-hydro-1H-pyrazino[1,2-a]quinoxaline]
- EC50 (RORγt): 429 nM
- Cellular Reporter Assay Amax (RORγt): 3.2
- EC50 (RORγt-LBD): 21.7 nM
- TR-FRET Biochemical Amax (RORγt-LBD): 0.82

Compound: CC(C)(C(=O)O)N1CCN2c3ccc(/C=C/c4c(Cl)cccc4C(F)(F)F)cc3N(S(=O)(=O)c3cccc(C(F)(F)F)c3)C[C@@H]2C1 [Example 55, (S,E)-2-(8-(2-chloro-6-(trifluoro-methyl)styryl)-6-((3-(trifluoro-methyl)phenyl)sulfonyl)-1,2,4,4a,5,6-hexahydro-3H-pyrazino [1,2-a]quinoxalin-3-yl)-2-methylpropanoic acid]
- EC50 (RORγt): 508 nM
- Cellular Reporter Assay Amax (RORγt): 2.7
- EC50 (RORγt-LBD): 46.6 nM
- TR-FRET Biochemical Amax (RORγt-LBD): 0.78

Compound: CC1(C)C=C(c2ccc3c(c2)N(S(=O)(=O)c2cccc(C(F)(F)F)c2)C[C@@H]2CN(C[C@@H](O)CO)CCN32)CC(C)(C)O1 [Example 41, (R)-3-((S)-8-(2,2,6,6-tetrameth-yl-3,6-dihydro-2H-pyran-4-yl)-6-((3-(trifluoromethyl)phe-nyl)sulfonyl)-1,2,4,4a,5,6-hexa-hydro-3H-pyrazino[1,2-a]qui-noxalin-3-yl)propane-1,2-diol]
- EC50 (RORγt-LBD): 6.73 nM
- TR-FRET Biochemical Amax (RORγt-LBD): 1.01
